In patent US6127406A, “Discodermolide compounds and methods of use” (Harbor Branch Oceanographic Institution, Inc., priority 1999, dated 2000):

Legend:
[1] = system: P388 murine leukemia cell line; experiment: Antiproliferative effect on P388 cells (MTT, 48-hr exposure); type: cell-based; details: Mus musculus, read-out: P388 IC-50
Protocol: (§1) Discodermolide and discodermolide analogs were analyzed as to their effects on proliferation of A549 human adenocarcinoma and P388 murine leukemia cell lines. P388 cells were obtained from Dr. R. Camalier, National Cancer Institute, Bethesda, Md., and A549 cells were obtained from American Type Culture Collection, Rockville, Md. All cell lines were maintained in Roswell Park Memorial Institute (RPMI) medium 1640 supplemented with 10% Rehatuin™ fetal calf serum (Intergen Company, Purchase, N.Y.). All cell lines are cultured in plastic tissue culture flasks and kept in an incubator at 37° C. in humidified air containing 5% CO2. Prior to testing, antibiotic-free stock cultures of each of the cell lines were subcultured to 10^6 cells/ml by dilution in fresh growth medium at 2 to 3 day intervals.
(§2) To assess the antiproliferative effects of agents against the P388 cell line, 200 μl cultures (96-well tissue culture plates, Nunc, Denmark) are established at 1×10^5 cells/ml in drug-free medium or medium containing the test agent at 10.0, 1.0, 0.10 and 0.010 μg/ml. The solvent for all dilutions is ethanol. All experimental cultures are initiated in medium containing Gentamycin sulfate (50 μg/ml; Schering Corporation, Kenilworth, N.J.).
(§3) After 48-hr exposures, P388 cells are enumerated using 3-[4,5-Dimethylthiazol-2-yl]-2,5-diphenyltetrazolium bromide (MTT) (M. C. Alley, et al., Cancer Res. 48:589, 1988). Similar procedures are utilized for A549 cells which require an additional 48 hr exposure prior to MTT addition. Results are expressed as percent inhibition compared to the negative (no drug) control. Positive drug controls are included to monitor drug sensitivity of each of the cell lines. These include varying dilutions of 5-fluorouracil and adriamycin.
(§4) To quantitate the effects on cell proliferation and resulting IC50 values, 75 μl of warm growth media containing 5 mg/ml MTT is added to each well, cultures returned to the incubator, and left undisturbed for 90 minutes. To spectrophotometrically quantitate formation of reduced formazan, plates are centrifuged (900× g, 5 minutes), culture fluids removed by aspiration, and 200 μl of acidified isopropanol (2 ml concentrated HCl/liter isopropanol) added per well. The absorbance of the resulting solutions is measured at 570 nm with a plate reader (TECAN Spectra II PlateReader, TECAN U.S., Research Triangle Park, N.C.) and a 650 nm reference filter. The absorbance of tests wells is divided by the absorbance of drug-free wells, and the concentration of agent that results in 50% of the absorbance of untreated cultures (IC50) is determined by linear regression of logit-transformed data (D. J. Finney, Statistical Method in Biological Assay, third ed., pp.316-348, Charles Griffin Co., London, 1978). A linear relationship between tumor cell number and formazan production has been routinely observed over the range of cell densities observed in these experiments. Two standard drug controls are included in each assay as a check to monitor the drug sensitivity of each of the cell lines and IC50 values are determined for each drug-cell combination.

[2] = system: purified bovine brain tubulin; experiment: Tubulin polymerization (optical density at 350 nm); type: biochemical; details: for Polymerization?: 10 uM, 37 C.; for microtubule polymerizing activity compared to discodermolide: compared to the non-acetylated discodermolide
Protocol: Polymerization of purified bovine brain tubulin (Cytoskeleton Inc., Denver, Colo.) was followed by changes in the optical density of tubulin solutions at 350 nm in a Hitachi U-3010 spectrophotometer equipped with a SPR-10 electronic thermostatted cell holder. Stock solutions of tubulin were diluted on ice in G-PEM buffer (1 mM GTP, 80 mM PIPES, 1 mM EGTA, 0.5 mM magnesium chloride; pH 6.8) to a final concentration of 1 mg/ml. The instrument was zeroed on this solution at 2° C. Discodermolide, its analogs, or paclitaxel were then added to the tubulin solution to a final concentration of 10 μM, quickly mixed, and the absorbance monitored at 37° C.

[3] = system: microtubule network of cells; experiment: Microtubule bundling patterns in cells by immunofluorescence; type: cell-based; details: for Microtubule bundling: concentration not given
Protocol: Discodermolide, discodermolide analogs and paclitaxel were evaluated as to their effects on the microtubule network of cells using FITC-labeled, anti-alpha-tubulin monoclonal antibodies.
On day 1, 2.5×10^5 adherent tumor cells were cultured in RPMI 1640 tissue culture medium supplemented with 10% fetal calf serum (TCM) overnight at 37° C. in 5% CO2 on 22 mm^2 coverslips in 6-well microtiter plates. […] On day 3, TCM was removed and cells attached to coverslips were fixed with a 3.7% formaldehyde solution in Dulbecco's PBS for 10 minutes at room temperature. Cells were permeabilized with a 2% Triton X-100 solution, 2 ml per well, for 5 minutes at room temperature and washed twice in Dulbecco's PBS prior to staining.
To each well containing cells attached to coverslips a 2 ml volume of mouse monoclonal anti-alpha-tubulin (Cat # T-5168, Sigma Immuno Chemicals) diluted 1:2400 was added and the cells incubated at 37° C. in 5% CO2 for 45 minutes. Coverslips were rinsed twice with Dulbecco's PBS. A 2 ml volume of goat-anti-mouse-IgG-FITC conjugate (Cat # T-5262, Sigma Immuno Chemicals) diluted at 1:2400 was added and the cells incubated at 37° C. in 5% CO2 for 45 minutes. Coverslips were rinsed once with sterile distilled water and mounted on slides and observed under the microscope using epifluorescence illumination for the presence of abnormal aster and microtubule bundle formation.

[4] = system: A549 human adenocarcinoma cell line; experiment: Antiproliferative effect on A549 cells (MTT); type: cell-based; details: additional 48 hr exposure, read-out: A549 IC-50
Protocol: as §1
as §3, with “Similar procedures are utilized for A549 cells which require an additional 48 hr exposure prior to MTT addition.” left out
as §4

[5] = system: A549 human adenocarcinoma and P388 murine leukemia cell lines; experiment: Antitumor effects of discodermolide analogs compared to discodermolide; type: cell-based; details: compared to the non-acetylated discodermolide
Protocol: as §1, §2, §3
To quantitate the effects on cell proliferation and resulting IC50 values, 75 μl of warm growth media containing 5 mg/ml MTT is added to each well, cultures returned to the incubator, and left undisturbed for 90 minutes. […]

[6] = system: purified bovine brain tubulin; experiment: Tubulin polymerization (optical density at 350 nm); type: biochemical; details: 10 uM, 6 C.-37 C.
A549 human lung cells = experiment: Effect on cell cycle progression (G2/M block, propidium iodide flow cytometry); type: cell-based; details: 100 nM, 48 hr
Protocol: A549 human lung cells were used as cell cycle targets to compare the effects of discodermolide, discodermolide analogs and paclitaxel on perturbation of the cell cycle. Cell cycle analyses were performed as follows: A549 cells were incubated at 37° C. in 10% CO2 in air in the presence or absence of varying concentrations of discodermolide, discodermolide analogs or paclitaxel (purchased from Molecular Probes, Eugene Oreg.) for 48 hr.
Cells were harvested, fixed in ethanol and stained with 0.5 mg/ml of P.I. together with 0.1 mg/ml of RNAse A. This procedure permeabilizes live cells and allows entry of P.I. to stain DNA (propidium iodide also stains double stranded RNA, so RNAse is included in the preparation to exclude this possibility). Stained preparations were analyzed on a Coulter EPICS ELITE with 488 nm excitation with the dead cells excluded by back gating of P.I. preparations without detergent on forward and side scatter histograms. Fluorescence measurements and resulting DNA histograms were collected from at least 5,000 P.I. stained cells at an emission wavelength of 690 nm. Raw histogram data was further analyzed using a cell cycle analysis program (Multicycle, Phoenix Flow Systems).

For `C=CC=CC(C)C(OC(N)=O)C(C)C(OC(C)=O)C(C)CC(C)=CC(C)C(OC(C)=O)C(C)C=CC(CC1OC(=O)C(C)C(OC(C)=O)C1C)OC(C)=O` (stereo not drawn) [Analog 1, Discodermolide-3,7,11,17-tetraacetate], the IC50 [1] was 837 nM, the “Polymerization?” value [2] was “No and inactive” and the “Microtubule Bundling?” value ([3]; 100 nM) was “No”. The Microtubule bundling [3] was “negative” and the IC50 [4] was 1310 nM.
`C=CC=CC(C)C(OC(N)=O)C(C)C(OC(C)=O)C(C)CC(C)=CC(C)C(O)C(C)C=CC(CC1OC(=O)C(C)C(OC(C)=O)C1C)OC(C)=O` (stereo not drawn) [Analog 2, Discodermolide-3,7,17-triacetate] was tested, and the IC50 [1] was > 6820 nM, the “Polymerization?” value [2] was “No and inactive” and the “Microtubule Bundling?” value ([3]; 100 nM) was “No”. For the same compound, the “Microtubule Bundling?” value ([3]; 1000 nM) was “No”, the Microtubule bundling [3] was “negative” and the IC50 [4] was > 1310 nM.
With `C=CC=CC(C)C(OC(N)=O)C(C)C(O)C(C)CC(C)=CC(C)C(OC(C)=O)C(C)C=CC(CC1OC(=O)C(C)C(OC(C)=O)C1C)OC(C)=O` (stereo not drawn) [Analog 3, Discodermolide-3,7,11-triacetate] the IC50 [1] was 166 nM, the “Polymerization?” value [2] was “No and inactive” and the “Microtubule Bundling?” value ([3]; 100 nM) was “No”. For the same compound, the Microtubule bundling [3] was “negative” and the IC50 [4] was 554 nM.
With `C=CC=CC(C)C(OC(N)=O)C(C)C(O)C(C)CC(C)=CC(C)C(O)C(C)C=CC(CC1OC(=O)C(C)C(OC(C)=O)C1C)OC(C)=O` (stereo not drawn) [Analog 4, Discodermolide-3,7-diacetate] the IC50 [1] was 0.7 nM, the “Polymerization?” value [2] was “Yes and able to induce tubulin polymerization” and the “microtubule polymerizing activity compared to discodermolide” value [2] was “improved”. For the same compound, the “Microtubule Bundling?” value ([3]; 10 nM) was “Yes”, the “Microtubule Bundling?” value ([3]; 100 nM) was “Yes and induced similar microtubule bundle formation” and the “antitumor activity compared to discodermolide” value [5] was “improved”. The IC50 [4] was 3.7 nM.
With `C=CC=CC(C)C(OC(N)=O)C(C)C(O)C(C)CC(C)=CC(C)C(OC(C)=O)C(C)C=CC(O)CC1OC(=O)C(C)C(OC(C)=O)C1C` (stereo not drawn) [Analog 5, Discodermolide-3,11-diacetate] the IC50 [1] was 103 nM, the “Polymerization?” value [2] was “No and inactive” and the “Microtubule Bundling?” value ([3]; 100 nM) was “No”. The Microtubule bundling [3] was “negative” and the IC50 [4] was 295 nM.
`C=CC=CC(C)C(OC(N)=O)C(C)C(OC(C)=O)C(C)CC(C)=CC(C)C(O)C(C)C=CC(O)CC1OC(=O)C(C)C(OC(C)=O)C1C` (stereo not drawn) [Analog 6, Discodermolide-3,17-diacetate] was tested, and the IC50 [1] was 1150 nM, the “Polymerization?” value [2] was “No and inactive” and the “Microtubule Bundling?” value ([3]; 100 nM) was “No”. The “Microtubule Bundling?” value ([3]; 1000 nM) was “Yes and induced microtubule bundles only at 1000 nM” and the IC50 [4] was 736 nM.
With `C=CC=CC(C)C(OC(N)=O)C(C)C(O)C(C)CC(C)=CC(C)C(O)C(C)C=CC(O)CC1OC(=O)C(C)C(OC(C)=O)C1C` (stereo not drawn) [Analog 7, Discodermolide-3-acetate] the IC50 [1] was 9 nM, the “Polymerization?” value [2] was “Yes and able to induce tubulin polymerization” and the “microtubule polymerizing activity compared to discodermolide” value [2] was “improved”. For the same compound, the “Microtubule Bundling?” value ([3]; 10 nM) was “Yes”, the “Microtubule Bundling?” value ([3]; 100 nM) was “Yes and induced similar microtubule bundle formation” and the “antitumor activity compared to discodermolide” value [5] was “improved”. It also gave an IC50 [4] of 9.4 nM.
`C=CC=CC(C)C(OC(N)=O)C(C)C(O)C(C)CC(C)=CC(C)C(O)C(C)C=CC(CC1OC(=O)C(C)C(O)C1C)OC(C)=O` (stereo not drawn) [Analog 8, Discodermolide-7-acetate] was tested, and the IC50 [1] was 4 nM, the “Polymerization?” value [2] was “able to induce tubulin polymerization” and the “microtubule polymerizing activity compared to discodermolide” value [2] was “improved”. For the same compound, the “Microtubule Bundling?” value ([3]; 100 nM) was “Yes and induced similar microtubule bundle formation”, the “Microtubule Bundling?” value ([3]; 1000 nM) was “Yes” and the “Polymerization?” value [6] was “Yes”. For the same compound, the “antitumor activity compared to discodermolide” value [5] was “improved” and the IC50 [4] was 0.8 nM.
With `C=C/C=C\[C@H](C)[C@H](OC(N)=O)[C@@H](C)[C@H](O)[C@@H](C)C/C(C)=C\[C@H](C)[C@@H](O)[C@@H](C)/C=C\[C@@H](O)C[C@@H]1OC(=O)[C@H](C)[C@@H](O)[C@H]1C` [Discodermolide 9, (+)discodermolide, reference compound] the IC50 [1] was 35 nM, the “Polymerization?” value [2] was “Yes” and the “Polymerization?” value ([2]; listed as discodermolide 9) was “induced the polymerization of purified tubulin”. For the same compound, the “Microtubule Bundling?” value ([3]; 10 nM) was “Yes”, the “Microtubule Bundling?” value ([3]; 100 nM) was “Yes” and the “Microtubule Bundling?” value ([3]; 100 nM, listed as Discodermolide9) was “induced the formation of microtubule bundles”. For the same compound, the Microtubule bundling [3] was “routinely exhibit abnormal formation of multiple centriolar-radiating microtubules with extensive clusters of associated microtubular "bundles"”, the “G2/M Block” value (A549 human lung cells) was “induced cell cycle, G2 /M block” and the IC50 [4] was 34 nM.
With `CC(=O)O[C@H]1C(=O)[C@@]2(C)[C@H]([C@H](OC(=O)c3ccccc3)[C@]3(O)C[C@H](OC(=O)[C@H](O)[C@@H](NC(=O)c4ccccc4)c4ccccc4)C(C)=C1C3(C)C)[C@]1(OC(C)=O)CO[C@@H]1C[C@@H]2O` [Paclitaxel, reference compound] the “Polymerization?” value [2] was “Yes”, the “Polymerization?” value ([2]; listed as paclitaxel) was “induced the polymerization of purified tubulin” and the “Microtubule Bundling?” value ([3]; 100 nM) was “Yes”. For the same compound, the “Microtubule Bundling?” value ([3]; 100 nM, listed as paclitaxel) was “induced the formation of microtubule bundles”, the Microtubule bundling [3] was “routinely exhibit abnormal formation of multiple centriolar-radiating microtubules with extensive clusters of associated microtubular "bundles"” and the IC50 [4] was 7.7 nM.
